Reference: patent US12649750B2, “Macrocyclic compounds, compositions, and methods of using thereof” (Sionna Therapeutics Inc., priority 2022, dated 2026)

These compounds were tested against T1, NBD1 (Homo sapiens, UniProt P13569) (assay: Aggregation analysis using differential static light scattering (DSLS), thermal stability of NBD1 (ΔTagg)). Conditions: ΔTagg versus DMSO control, NBD1 0.2 mg/ml.
T1 construct: Purified recombinant NBD1 was produced using previously described methods; made in house
T1 sequence (P13569 423-646 limits assumed): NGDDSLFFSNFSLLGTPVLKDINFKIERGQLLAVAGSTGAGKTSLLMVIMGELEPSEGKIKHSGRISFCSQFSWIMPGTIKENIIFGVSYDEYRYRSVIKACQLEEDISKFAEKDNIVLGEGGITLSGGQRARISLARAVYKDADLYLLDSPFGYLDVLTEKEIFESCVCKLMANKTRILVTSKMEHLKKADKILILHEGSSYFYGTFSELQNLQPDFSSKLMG
Format: binding
Summary of the method: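 Thermal aggregation of purified NBD1 was followed by static light scattering during a 1° C./min ramp to 70° C. Protein was at 0.2 mg/ml with 2 mM ATP at pH7.6. Each compound's Tagg was referenced to DMSO controls.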

SMILES | DSLS 3D (100 μM ΔT)
Cn1nc2nc1-c1cc(ccc1F)Sc1c(F)c(F)c3[nH]cc(CC(=O)O)c3c1CCS(=O)(=O)CC(C)(C)CCC[C@]2(C)c1ccccc1 [Compound 325, 2-[(6R)-21,22,28-Trifluoro-3,6,10,10-tetramethyl-12,12-dioxo-6-phenyl-12λ6,24-dithia-3,4,19,30-tetrazapentacyclo[23.3.1.12,5.015,23.016,20]triaconta-1(29),2(30),4,15,17,20,22,25,27-nonaen-17-yl]acetic Acid] | B (a value above 5 °C and less than or equal to 10 °C is marked “B”)
C[C@H](Cc1cccc([C@@]2(C)CCCC(C)(C)CS(=O)(=O)CCc3c(c(F)c(F)c4[nH]cc(Cl)c34)Oc3ccc(F)c(c3)-c3nc2nn3C)c1)C(=O)O [Compound 327] | A (an ΔTagg value less than or equal to 5 °C is marked “A”)
C[C@H](Cc1cccc([C@@]2(C)CCCC(C)(C)CS(=O)(=O)CCc3c(c(F)c(F)c4[nH]ccc34)Oc3ccc(F)c(c3)-c3nc2nn3C)c1)C(=O)NS(=O)(=O)C1CC1 [Compound 328, (2R)—N-Cyclopropylsulfonyl-2-methyl-3-[3-[(6R)-21,22,28-trifluoro-3,6,10,10-tetramethyl-12,12-dioxo-24-oxa-12λ6-thia-3,4,19,30-tetrazapentacyclo[23.3.1.12,5.015,23.016,20]triaconta-1(29),2(30),4,15,17,20,22,25,27-nonaen-6-yl]phenyl]propenamide] | B (a value above 5 °C and less than or equal to 10 °C is marked “B”)
C[C@@H](Cc1cccc([C@@]2(C)CCCC(C)(C)CS(=O)(=O)CCc3c(c(F)cc4[nH]ccc34)S(=O)(=O)c3ccc(F)c(c3)-c3nc2nn3C)c1)C(=O)O [Compound 329, (2S)-3-[3-[(6R)-22,28-Difluoro-3,6,10,10-tetramethyl-12,12,24,24-tetraoxo-12λ6,24λ6-dithia-3,4,19,30-tetrazapentacyclo[23.3.1.12,5.015,23.016,20]triaconta-1(29),2(30),4,15,17,20,22,25,27-nonaen-6-yl]phenyl]-2-methyl-propanoic Acid] | B (a value above 5 °C and less than or equal to 10 °C is marked “B”)
C[C@@H](Cc1cccc([C@@]2(C)CCCC(C)(C)CS(=O)(=O)CCc3c(c(F)cc4[nH]ccc34)S(=O)(=O)c3cccc(c3)-c3coc2n3)c1)C(=O)O [Compound 331, (2S)-3-[3-[(6R)-22-Fluoro-6,10,10-trimethyl-12,12,24,24-tetraoxo-4-oxa-12λ6,24λ6-dithia-19,30-diazapentacyclo[23.3.1.12,5.015,23.016,20]triaconta-1(29),2,5(30),15,17,20,22,25,27-nonaen-6-yl]phenyl]-2-methyl-propanoic acid] | A (an ΔTagg value less than or equal to 5 °C is marked “A”)
CC(=O)OC[C@H](Cc1cccc([C@@]2(C)CCCC(C)(C)CS(=O)(=O)CCc3c(c(F)cc4[nH]ccc34)Sc3ccnc(c3)-c3nc2nn3C)c1)OC(C)=O [Compound 332] | A (an ΔTagg value less than or equal to 5 °C is marked “A”)
Cn1nc2nc1-c1cc(ccn1)Sc1c(F)cc3[nH]ccc3c1CCS(=O)(=O)CC(C)(C)CCC[C@]2(C)c1cccc(C[C@H](O)CO)c1 [Compound 333, (2S)-3-[3-[(6R)-22-Fluoro-3,6,10,10-tetramethyl-12,12-dioxo-12λ6,24-dithia-3,4,19,28,30-pentazapentacyclo[23.3.1.12,5.015,23.016,20]triaconta-1(29),2(30),4,15,17,20,22,25,27-nonaen-6-yl]phenyl]propane-1,2-diol] | B (a value above 5 °C and less than or equal to 10 °C is marked “B”)
Cn1nc2nc1-c1cc(ccn1)S(=O)(=O)c1c(F)cc3[nH]ccc3c1CCS(=O)(=O)CC(C)(C)CCC[C@]2(C)c1cccc(C[C@H](O)CO)c1 [Compound 335, (2S)-3-[3-[(6R)-22-Fluoro-3,6,10,10-tetramethyl-12,12,24,24-tetraoxo-12λ6,24λ6-dithia-3,4,19,28,30-pentazapentacyclo[23.3.1.12,5.015,23.016,20]triaconta-1(29),2(30),4,15,17,20,22,25,27-nonaen-6-yl]phenyl]propane-1,2-diol] | A (an ΔTagg value less than or equal to 5 °C is marked “A”)
CC(=O)OC[C@@H](Cc1cccc([C@@]2(C)CCCC(C)(C)CS(=O)(=O)CCc3c(c(F)cc4[nH]ccc34)Sc3ccnc(c3)-c3nc2nn3C)c1)OC(C)=O [Compound 336A, [(2R)-2-Acetoxy-3-[3-[(6R)-22-fluoro-3,6,10,10-tetramethyl-12,12-dioxo-12λ6,24-dithia-3,4,19,28,30-pentazapentacyclo[23.3.1.12,5.015,23.016,20]triaconta-1(29),2(30),4,15,17,20,22,25,27-nonaen-6-yl]phenyl]propyl]Acetate] | A (an ΔTagg value less than or equal to 5 °C is marked “A”)
Cn1nc2nc1-c1cc(ccn1)Sc1c(F)cc3[nH]ccc3c1CCS(=O)(=O)CC(C)(C)CCC[C@]2(C)c1cccc(C[C@@H](O)CO)c1 [Compound 336B, (2R)-3-[3-[(6R)-22-Fluoro-3,6,10,10-tetramethyl-12,12-dioxo-12λ6,24-dithia-3,4,19,28,30-pentazapentacyclo[23.3.1.12,5.015,23.016,20]triaconta-1(29),2(30),4,15,17,20,22,25,27-nonaen-6-yl]phenyl]propane-1,2-diol] | A (an ΔTagg value less than or equal to 5 °C is marked “A”)
Cn1nc2nc1-c1cc(ccn1)S(=O)(=O)c1c(F)cc3[nH]ccc3c1CCS(=O)(=O)CC(C)(C)CCC[C@]2(C)c1cccc(C[C@@H](O)CO)c1 [Compound 338, (2R)-3-[3-[(6R)-22-Fluoro-3,6,10,10-tetramethyl-12,12,24,24-tetraoxo-12λ6,24λ6-dithia-3,4,19,28,30-pentazapentacyclo[23.3.1.12,5.015,23.016,20]triaconta-1(29),2(30),4,15,17,20,22,25,27-nonaen-6-yl]phenyl]propane-1,2-diol] | A (an ΔTagg value less than or equal to 5 °C is marked “A”)
CC(=O)OC[C@H](Cc1cccc([C@@]2(C)CCCC(C)(C)CS(=O)(=O)CCc3c(c(F)c(F)c4[nH]ccc34)Sc3ccnc(c3)-c3nc2nn3C)c1)OC(C)=O [Compound 339, [(2S)-2-acetoxy-3-[3-[(6R)-21,22-difluoro-3,6,10,10-tetramethyl-12,12-dioxo-12λ6,24-dithia-3,4,19,28,30-pentazapentacyclo[23.3.1.12,5.015,23.016,20]triaconta-1(29),2(30),4,15,17,20,22,25,27-nonaen-6-yl]phenyl]propyl]Acetate] | A (an ΔTagg value less than or equal to 5 °C is marked “A”)
Cn1nc2nc1-c1cc(ccn1)Sc1c(F)c(F)c3[nH]ccc3c1CCS(=O)(=O)CC(C)(C)CCC[C@]2(C)c1cccc(C[C@H](O)CO)c1 [Compound 340, (2S)-3-[3-[(6R)-21,22-Difluoro-3,6,10,10-tetramethyl-12,12-dioxo-12λ6,24-dithia-3,4,19,28,30-pentazapentacyclo[23.3.1.12,5.015,23.016,20]triaconta-1(29),2(30),4,15,17,20,22,25,27-nonaen-6-yl]phenyl]propane-1,2-diol] | B (a value above 5 °C and less than or equal to 10 °C is marked “B”)
